# Source: patent US9067881B2, “4-tolyl-ethynyl-octahydro-indole-1-ester derivatives” (NOVARTIS AG, priority 2011, dated 2015)
# How the values were obtained:
# [1] = In-vitro clearance in rat liver microsomes (metabolic stability, compound depletion)
# [2] = In-vitro clearance in human liver microsomes (metabolic stability, compound depletion)
# [3] = Solubility in Cl free phosphate buffer pH 6.8; type: physicochemical; settings: aqueous buffer; Cl free phosphate buffer (0.067 M) pH 6.8
Structure (SMILES),microsomal CLint at 1 μM [1],microsomal CLint at 1 μM [2],solubility [3]
"COC(=O)N1CC[C@@H]2[C@H]1CCC[C@]2(C#Cc1cccc(C)c1)OC(=O)CCN [Example 40, (3aR,4S,7aR)-methyl 4-(3-aminopropanoyloxy)-4-(m-tolylethynyl)octahydro-1H-indole-1-carboxylate]",302 µL/min/mg,36 µL/min/mg,–
"CCCCCCCCCCCCC(=O)O[C@@]1(C#Cc2cccc(C)c2)CCC[C@@H]2[C@H]1CCN2C(=O)OC [Example 25, (3aR,4S,7aR)-4-m-Tolylethynyl-4-tridecanoyloxy-octahydro-indole-1-carboxylic acid methyl ester]",32 µL/min/mg,–,< 2 µg/mL
"CCCCCCC(=O)O[C@@]1(C#Cc2cccc(C)c2)CCC[C@@H]2[C@H]1CCN2C(=O)OC [Example 23, (3aR,4S,7aR)-4-Heptanoyloxy-4-m-tolylethynyl-octahydro-indole-1-carboxylic acid methyl ester]",3.4 µL/min/mg,–,< 2 µg/mL
"COC(=O)N1CC[C@@H]2[C@H]1CCC[C@]2(C#Cc1cccc(C)c1)OC(=O)[C@@H](N)CCSC [Example 6, (3aR,4S,7aR)-4-((S)-2-Amino-4-methylsulfanyl-butyryloxy)-4-m-tolylethynyl-octahydro-indole-1-carboxylic acid methyl ester]",51 µL/min/mg,–,–
"CCCCCCCCCCCC(=O)O[C@@]1(C#Cc2cccc(C)c2)CCC[C@@H]2[C@H]1CCN2C(=O)OC [Example 19, (3aR,4S,7aR)-4-Dodecanoyloxy-4-m-tolylethynyl-octahydro-indole-1-carboxylic acid methyl ester]",32 µL/min/mg,–,< 2 µg/mL
"COC(=O)N1CC[C@@H]2[C@H]1CCC[C@]2(C#Cc1cccc(C)c1)OC(=O)[C@H](C)N [Example 9, (3aR,4S,7aR)-4-((S)-2-Amino-propionyloxy)-4-m-tolylethynyl-octahydro-indole-1-carboxylic acid methyl ester]",355 µL/min/mg,315 µL/min/mg,–
"CNCC(=O)O[C@@]1(C#Cc2cccc(C)c2)CCC[C@@H]2[C@H]1CCN2C(=O)OC [Example 7, (3aR,4S,7aR)-4-(2-Methylamino-acetoxy)-4-m-tolylethynyl-octahydro-indole-1-carboxylic acid methyl ester]",346 µL/min/mg,433 µL/min/mg,–
"COC(=O)N1CC[C@@H]2[C@H]1CCC[C@]2(C#Cc1cccc(C)c1)OC(=O)CN(C)C [Example 1, (3aR,4S,7aR)-4-(2-Dimethylamino-acetoxy)-4-m-tolylethynyl-octahydro-indole-1-carboxylic acid methyl ester]",195 µL/min/mg,14 µL/min/mg,–
"COC(=O)N1CC[C@@H]2[C@H]1CCC[C@]2(C#Cc1cccc(C)c1)OC(=O)CCCN(C)C [Example 3, (3aR,4S,7aR)-4-(4-Dimethylamino-butyryloxy)-4-m-tolylethynyl-octahydro-indole-1-carboxylic acid methyl ester]",730 µL/min/mg,283 µL/min/mg,–
"CCC(=O)O[C@@]1(C#Cc2cccc(C)c2)CCC[C@@H]2[C@H]1CCN2C(=O)OC [Example 14, (3aR,4S,7aR)-4-Propionyloxy-4-m-tolylethynyl-octahydro-indole-1-carboxylic acid methyl ester]",3.4 µL/min/mg,–,9 µg/mL
"COC(=O)N1CC[C@@H]2[C@H]1CCC[C@]2(C#Cc1cccc(C)c1)OC(=O)[C@@H](N)CC(C)C [Example 5, (3aR,4S,7aR)-4-((S)-2-Amino-4-methyl-pentanoyloxy)-4-m-tolylethynyl-octahydro-indole-1-carboxylic acid methyl ester]",48 µL/min/mg,–,–
"CN[C@H](C(=O)O[C@@]1(C#Cc2cccc(C)c2)CCC[C@@H]2[C@H]1CCN2C(=O)OC)C(C)C [Example 36, (3aR,4S,7aR)-4-((S)-3-Methyl-2-methylamino-butyryloxy)-4-m-tolylethynyl-octahydro-indole-1-carboxylic acid methyl ester]",815 µL/min/mg,–,–
"COC(=O)N1CC[C@@H]2[C@H]1CCC[C@]2(C#Cc1cccc(C)c1)OC(=O)c1cccc(C)c1 [Example 46, (3aR,4S,7aR)-methyl 4-(3-methylbenzoyloxy)-4-(m-tolylethynyl)octahydro-1H-indole-1-carboxylate]",4.4 µL/min/mg,–,–
"COC(=O)N1CC[C@@H]2[C@H]1CCC[C@]2(C#Cc1cccc(C)c1)OC(=O)CN1CCOCC1 [Example 26, (3aR,4S,7aR)-4-(2-Morpholin-4-yl-acetoxy)-4-m-tolylethynyl-octahydro-indole-1-carboxylic acid methyl ester]",533 µL/min/mg,770 µL/min/mg,138 µg/mL
"COC(=O)N1CC[C@@H]2[C@H]1CCC[C@@]2(O)C#Cc1cccc(C)c1 [Example 1.0, 4-hydroxy-4-m-tolylethynyl-octahydro-indole-1-carboxylic acid methyl ester, reference compound]",277 µL/min/mg,113 µL/min/mg,51 µg/mL
"COC(=O)N1CC[C@@H]2[C@H]1CCC[C@]2(C#Cc1cccc(C)c1)OC(=O)c1cccnc1 [Example 51, (3aR,4S,7aR)-methyl 4-(nicotinoyloxy)-4-(m-tolylethynyl)octahydro-1H-indole-1-carboxylate]",478 µL/min/mg,–,< 2 µg/mL
"COC(=O)N1CC[C@@H]2[C@H]1CCC[C@]2(C#Cc1cccc(C)c1)OC(=O)c1ccccn1 [Example 54, (3aR,4S,7aR)-4-(Pyridine-2-carbonyloxy)-4-m-tolylethynyl-octahydro-indole-1-carboxylic acid methyl ester]",167 µL/min/mg,–,2 µg/mL
"COC(=O)N1CC[C@@H]2[C@H]1CCC[C@]2(C#Cc1cccc(C)c1)OC(=O)CN [Example 8, (3aR,4S,7aR)-4-(2-Amino-acetoxy)-4-m-tolylethynyl-octahydro-indole-1-carboxylic acid methyl ester]",87 µL/min/mg,187 µL/min/mg,125 µg/mL
"CCCN(CCC)C(=O)CCC(=O)O[C@@]1(C#Cc2cccc(C)c2)CCC[C@@H]2[C@H]1CCN2C(=O)OC [Example 63, (3aR,4S,7aR)-methyl 4-(4-(dipropylamino)-4-oxobutanoyloxy)-4-(m-tolylethynyl)octahydro-1H-indole-1-carboxylate]",26 µL/min/mg,–,43 µg/mL
"CC[C@H](C)[C@H](NC)C(=O)O[C@@]1(C#Cc2cccc(C)c2)CCC[C@@H]2[C@H]1CCN2C(=O)OC [Example 37, (3aR,4S,7aR)-4-((2S,3S)-3-Methyl-2-methylamino-pentanoyloxy)-4-m-tolylethynyl-octahydro-indole-1-carboxylic acid methyl ester]",693 µL/min/mg,–,–
"COC(=O)N1CC[C@@H]2[C@H]1CCC[C@]2(C#Cc1cccc(C)c1)OC(=O)c1c(C)cc(C)cc1C [Example 53, (3aR,4S,7aR)-methyl 4-(m-tolylethynyl)-4-(2,4,6-trimethylbenzoyloxy)octahydro-1H-indole-1-carboxylate]",3.4 µL/min/mg,–,–
"CN[C@@H](C)C(=O)O[C@@]1(C#Cc2cccc(C)c2)CCC[C@@H]2[C@H]1CCN2C(=O)OC [Example 35, (3aR,4S,7aR)-4-((S)-2-Methylamino-propionyloxy)-4-m-tolylethynyl-octahydro-indole-1-carboxylic acid methyl ester]",50 µL/min/mg,–,–
"COC(=O)N1CC[C@@H]2[C@H]1CCC[C@]2(C#Cc1cccc(C)c1)OC(=O)[C@@H](N)Cc1ccccc1 [Example 31, (3aR,4S,7aR)-4-((S)-2-Amino-3-phenyl-propionyloxy)-4-m-tolylethynyl-octahydro-indole-1-carboxylic acid methyl ester]",262 µL/min/mg,–,–
"CC[C@H](N)C(=O)O[C@@]1(C#Cc2cccc(C)c2)CCC[C@@H]2[C@H]1CCN2C(=O)OC [Example 30, (3aR,4S,7aR)-4-((S)-2-Amino-butyryloxy)-4-m-tolylethynyl-octahydro-indole-1-carboxylic acid methyl ester]",375 µL/min/mg,–,–
"CCCCCCCCC(=O)O[C@@]1(C#Cc2cccc(C)c2)CCC[C@@H]2[C@H]1CCN2C(=O)OC [Example 24, (3aR,4S,7aR)-4-Nonanoyloxy-4-m-tolylethynyl-octahydro-indole-1-carboxylic acid methyl ester]",32 µL/min/mg,–,< 2 µg/mL
"COC(=O)N1CC[C@@H]2[C@H]1CCC[C@]2(C#Cc1cccc(C)c1)OC(=O)Cc1ccccc1 [Example 43, (3aR,4S,7aR)-methyl 4-(2-phenylacetoxy)-4-(m-tolylethynyl)octahydro-1H-indole-1-carboxylate]",36 µL/min/mg,–,–
"COC(=O)N1CC[C@@H]2[C@H]1CCC[C@]2(C#Cc1cccc(C)c1)OC(=O)c1ccncc1 [Example 45, (3aR,4S,7aR)-methyl 4-(isonicotinoyloxy)-4-(m-tolylethynyl)octahydro-1H-indole-1-carboxylate]",385 µL/min/mg,–,< 2 µg/mL
"CCCCCCCCCC(=O)O[C@@]1(C#Cc2cccc(C)c2)CCC[C@@H]2[C@H]1CCN2C(=O)OC [Example 20, (3aR,4S,7aR)-4-Decanoyloxy-4-m-tolylethynyl-octahydro-indole-1-carboxylic acid methyl ester]",5.4 µL/min/mg,–,< 2 µg/mL
"CC[C@H](C)[C@H](N)C(=O)O[C@@]1(C#Cc2cccc(C)c2)CCC[C@@H]2[C@H]1CCN2C(=O)OC [Example 33, (3aR,4S,7aR)-4-((2S,3S)-2-Amino-3-methyl-pentanoyloxy)-4-m-tolylethynyl-octahydro-indole-1-carboxylic acid methyl ester]",660 µL/min/mg,–,–
